The values below come from US20240391926A1, “SPIROINDOLINONE COMPOUNDS AS Kv1.3 POTASSIUM SHAKER CHANNEL BLOCKERS” (D.E. Shaw Research, LLC, priority 2021, published 2024).

Usually IC50 stands for the concentration that gives 50% inhibition. Low readings indicate greater potency in that assay, high ones weaker potency in that assay.

SMILES strings stand for the structures.

The test addresses T1, Kv1.3 potassium channel (Homo sapiens, UniProt P22001).
T1 construct: expressed in transfected cells
Put plainly: Kv1.3 potassium channel blocker activity, automated whole-cell patch clamp (Patchliner) in CHO-K1 cells stably expressing Kv1.3. Format: cell-based. Particulars: 30 nM-100 μM. Here is the method: This assay is used to evaluate the disclosed compounds' activities as Kv1.3 potassium channel blockers.
CHO-K1 cells stably expressing Kv1.3 were grown in DMEM containing 10% heat-inactivated FBS, 1 mM sodium pyruvate, 2 mM L-glutamine, and G418 (500 μg/ml). Cells were grown in culture flasks at 37° C. in a 5% CO2-humidified incubator.
The cells were bathed in an extracellular solution containing 140 mM NaCl, 4 mM KCl, 2 mM CaCl2), 1 mM MgCl2, 5 mM glucose, 10 mM HEPES; pH adjusted to 7.4 with NaOH; 295-305 mOsm. The internal solution contained 50 mM KCl, 10 mM NaCl, 60 mM KF, 20 mM EGTA, 10 mM HEPES; pH adjusted to 7.2 with KOH; 285 mOsm. All compounds were dissolved in DMSO at 30 mM. Compound stock solutions were freshly diluted with external solution to concentrations of 30 nM, 100 nM, 300 nM, 1 μM, 3 μM, 10 μM, 30 μM and 100 μM. The highest content of DMSO (0.3%) was present in 100 μM.
The currents were evoked by applying 100 ms depolarizing pulses from −90 mV (holding potential) to +40 mV were applied with 0.1 Hz frequency. Control (compound-free) and compound pulse trains for each compound concentration applied contained 20 pulses. 10-second breaks were used between pulse trains (see Table A below).
Whole-cell current recordings and compound application were enabled by means of an automated patch clamp platform Patchliner (Nanion Technologies GmbH). EPC 10 patch clamp amplifier (HEKA Elektronik Dr. Schulze GmbH) along with Patchmaster software (HEKA Elektronik Dr. Schulze GmbH) was used for data acquisition. Data were sampled at 10 kHz without filtering. Passive leak currents were subtracted online using a P/4 procedure (HEKA Elektronik Dr. Schulze GmbH). Increasing compound concentrations were applied consecutively to the same cell without washouts in between. Total compound incubation time before the next pulse train was not longer than 10 seconds. Peak current inhibition was observed during compound equilibration.
AUC and peak values were obtained with Patchmaster (HEKA Elektronik Dr. Schulze GmbH). To determine IC50, the last single pulse in the pulse train corresponding to a given compound concentration was used. Obtained AUC and peak values in the presence of compound were normalized to control values in the absence of compound. Using Origin (OridinLab), IC50 was derived from data fit to Hill equation: Icompound/Icontrol=(100−A)/(1+([compound]/IC50)nH)+A, where IC50 value is the concentration at which current inhibition is half-maximal, [compound] is the applied compound concentration, A is the fraction of current that is not blocked and nH is the Hill coefficient.
Background: In patch-clamp work, channel activity is measured electrically.

T1 sequence (P22001 whole entry): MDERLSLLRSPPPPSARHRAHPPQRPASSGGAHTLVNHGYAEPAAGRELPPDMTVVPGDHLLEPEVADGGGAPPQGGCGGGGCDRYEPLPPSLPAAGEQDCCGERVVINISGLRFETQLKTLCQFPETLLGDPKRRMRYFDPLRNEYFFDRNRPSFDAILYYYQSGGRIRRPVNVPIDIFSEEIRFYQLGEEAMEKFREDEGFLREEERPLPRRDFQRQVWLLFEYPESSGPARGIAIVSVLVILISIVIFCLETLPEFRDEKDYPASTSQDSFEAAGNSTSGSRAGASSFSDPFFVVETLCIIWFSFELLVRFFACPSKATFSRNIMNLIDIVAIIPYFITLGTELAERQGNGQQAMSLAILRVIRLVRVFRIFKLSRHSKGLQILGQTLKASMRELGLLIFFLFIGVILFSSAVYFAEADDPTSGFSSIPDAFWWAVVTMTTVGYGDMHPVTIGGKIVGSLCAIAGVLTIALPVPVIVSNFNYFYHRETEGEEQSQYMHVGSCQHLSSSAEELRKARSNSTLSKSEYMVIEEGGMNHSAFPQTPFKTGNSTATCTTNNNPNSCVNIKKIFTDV

The compound `NC[C@@H](O)C(=O)N1CC[C@]2(C1)C(=O)Nc1cc(Cl)c(Cl)cc12` [Compound 55, (S)-1′-((R)-3-amino-2-hydroxypropanoyl)-5,6-dichlorospiro[indoline-3,3′-pyrrolidin]-2-one] showed an IC50 of under 1 µM. In the case of `C[C@@H](O)CC(=O)N1CC[C@]2(C1)C(=O)Nc1cc(Cl)c(Cl)cc12` [Compound 89, (S)-5,6-dichloro-1′-((R)-3-hydroxybutanoyl)spiro[indoline-3,3′-pyrrolidin]-2-one] it was under 3 µM; in that of `O=C([C@@H](O)CO)N1CC[C@]2(C1)C(=O)Nc1cc(Cl)c(Cl)cc12` [Compound 157, (S)-5,6-dichloro-1′-((S)-2,3-dihydroxypropanoyl)spiro[indoline-3,3′-pyrrolidin]-2-one], under 1 µM. The value for `O=C1Nc2cc(Cl)c(Cl)cc2[C@]12CCN(C(=O)[C@]13CNCC1C3)C2` (single isomer, unassigned; isomer 1) [Compound 32] was under 1 µM; that for `C[C@@H]1C[C@]2(CN1C(=O)CO)C(=O)Nc1cc(Cl)c(Cl)cc12` (single isomer, unassigned; isomer 3) [Compound 125, 5,6-dichloro-1′-(2-hydroxyacetyl)-5′-methyl-1H-spiro[indole-3,3′-pyrrolidin]-2-one isomer 3] was under 1 µM; that for `O=C([C@H]1CC[C@H](O)[C@@H](O)C1)N1CC[C@]2(C1)C(=O)Nc1cc(Cl)c(Cl)cc12` (single isomer, unassigned; isomer 2) [Compound 108] was under 3 µM.

With `Cn1cc(C(=O)N2CC[C@]3(C2)C(=O)Nc2cc(Cl)c(Cl)cc23)ccc1=O` [Compound 83, (S)-5,6-dichloro-1′-(1-methyl-6-oxo-1,6-dihydropyridine-3-carbonyl)spiro[indoline-3,3′-pyrrolidin]-2-one], the IC50 was under 10 µM. With `O=C(c1ccc(CO)nc1)N1CC[C@]2(C1)C(=O)Nc1cc(Cl)c(Cl)cc12` [Compound 68, (S)-5,6-dichloro-1′-(6-(hydroxymethyl)nicotinoyl)spiro[indoline-3,3′-pyrrolidin]-2-one], the IC50 was under 3 µM.

In the case of `Cc1cc2c(cc1Cl)[C@@]1(CCN(C(=O)CO)C1)C(=O)N2` [Compound 119, (R)-5-chloro-1′-(2-hydroxyacetyl)-6-methylspiro[indoline-3,3′-pyrrolidin]-2-one], the IC50 was under 10 µM.

The compound `CC(C)[C@@H](N)C(=O)N1CC[C@]2(C1)C(=O)Nc1cc(Cl)c(Cl)cc12` [Compound 46, (S)-1′-(D-valyl)-5,6-dichlorospiro[indoline-3,3′-pyrrolidin]-2-one] gave an IC50 of under 3 µM. The value for `O=C(c1cc[nH]c1)N1CC[C@]2(C1)C(=O)Nc1cc(Cl)c(Cl)cc12` [Compound 135, (S)-5,6-dichloro-1′-(1H-pyrrole-3-carbonyl)spiro[indoline-3,3′-pyrrolidin]-2-one] was under 1 µM; that for `NC[C@H](O)C(=O)N1CC[C@]2(C1)C(=O)Nc1cc(Cl)c(Cl)cc12` [Compound 54, (S)-1′-((S)-3-amino-2-hydroxypropanoyl)-5,6-dichlorospiro[indoline-3,3′-pyrrolidin]-2-one] was under 3 µM. In the case of `O=C(C(CO)CO)N1CC[C@]2(C1)C(=O)Nc1cc(Cl)c(Cl)cc12` [Compound 19, (S)-5,6-dichloro-1′-(3-hydroxy-2-(hydroxymethyl)propanoyl)spiro[indoline-3,3′-pyrrolidin]-2-one] it was under 3 µM; in that of `C[C@H](O)CC(=O)N1CC[C@]2(C1)C(=O)Nc1cc(Cl)c(Cl)cc12` [Compound 88, (S)-5,6-dichloro-1′-((S)-3-hydroxybutanoyl)spiro[indoline-3,3′-pyrrolidin]-2-one], under 3 µM; in that of `O=C(c1cc(CO)[nH]n1)N1CC[C@]2(C1)C(=O)Nc1cc(Cl)c(Cl)cc12` [Compound 79, (S)-5,6-dichloro-1′-(5-(hydroxymethyl)-1H-pyrazole-3-carbonyl)spiro[indoline-3,3′-pyrrolidin]-2-one], under 3 µM. On to `CC[C@@H](O)C(=O)N1CC[C@]2(C1)C(=O)Nc1cc(Cl)c(Cl)cc12` [Compound 92, (S)-5,6-dichloro-1′-((R)-2-hydroxybutanoyl)spiro[indoline-3,3′-pyrrolidin]-2-one], for which the IC50 is under 10 µM. The compound `C[C@H]1C[C@]2(CN1C(=O)CO)C(=O)Nc1cc(Cl)c(Cl)cc12` (single isomer, unassigned; isomer 1) [Compound 123, 5,6-dichloro-1′-(2-hydroxyacetyl)-5′-methyl-1H-spiro[indole-3,3′-pyrrolidin]-2-one isomer 1] had an IC50 of under 30 µM. In the case of `O=C(N1CC[C@]2(C1)C(=O)Nc1cc(Cl)c(Cl)cc12)[C@@]1(O)CCNC1` (single isomer, unassigned; isomer 2) [Compound 31] it was under 3 µM. In turn, `O=C(N1CC[C@]2(C1)C(=O)Nc1cc(Cl)c(Cl)cc12)C1(O)CCNC1` (single isomer, unassigned; isomer 1) [Compound 30] displayed an IC50 of under 1 µM. Compound `CS(=O)(=O)N1CC[C@]2(C1)C(=O)Nc1cc(Cl)c(Cl)cc12` [Compound 143] had an IC50 of under 1 µM. The compound `O=C(CC1(O)CCC1)N1CC[C@]2(C1)C(=O)Nc1cc(Cl)c(Cl)cc12` [Compound 90, (S)-5,6-dichloro-1′-(2-(1-hydroxycyclobutyl)acetyl)spiro[indoline-3,3′-pyrrolidin]-2-one] showed an IC50 of under 10 µM. In the case of `CN(C)CC(=O)N1CCC2(C1)C(=O)Nc1cc(Cl)c(Cl)cc12` (stereo not drawn) [Compound 7, 5,6-dichloro-1′-(dimethylglycyl)spiro[indoline-3,3′-pyrrolidin]-2-one] it was under 3 µM. Compound `O=C(c1cn[nH]n1)N1CC[C@]2(C1)C(=O)Nc1cc(Cl)c(Cl)cc12` [Compound 137, (S)-5,6-dichloro-1′-(1H-1,2,3-triazole-4-carbonyl)spiro[indoline-3,3′-pyrrolidin]-2-one] showed an IC50 of under 1 µM. Regarding `CC(=O)N1CC[C@]2(C1)C(=O)Nc1cc(Cl)c(Cl)cc12` [Compound 152, (S)-1′-acetyl-5,6-dichlorospiro[indoline-3,3′-pyrrolidin]-2-one], the IC50 is under 1 µM. In the case of `O=C([C@@H]1CC[C@H](O)C1)N1CC[C@]2(C1)C(=O)Nc1cc(Cl)c(Cl)cc12` (single isomer, unassigned; isomer 4) [Compound 66] it was under 3 µM; in that of `O=C([C@H]1[C@@H]2CN[C@H]1C2)N1CC[C@]2(C1)C(=O)Nc1cc(Cl)c(Cl)cc12` (single isomer, unassigned; isomer 1) [Compound 57], under 3 µM. The value for `NC(=O)N1CC[C@@]2(C1)C(=O)Nc1cc(Cl)c(Cl)cc12` (single isomer, unassigned) [Compound 155] was under 3 µM; that for `COCC(=O)N1CC[C@]2(C1)C(=O)Nc1cc(Cl)c(Cl)cc12` [Compound 147, (S)-5,6-dichloro-1′-(2-methoxyacetyl)spiro[indoline-3,3′-pyrrolidin]-2-one] was under 1 µM; that for `O=C(CO)N1CC[C@]2(C1)C(=O)Nc1cc(Cl)c(Br)cc12` [Compound 118, (S)-5-bromo-6-chloro-1′-(2-hydroxyacetyl)spiro[indoline-3,3′-pyrrolidin]-2-one] was under 1 µM. In the case of `CN1CC(C(=O)N2CC[C@]3(C2)C(=O)Nc2cc(Cl)c(Cl)cc23)CC1=O` (stereo partly drawn) [Compound 81, (3S)-5,6-dichloro-1′-(1-methyl-5-oxopyrrolidine-3-carbonyl)spiro[indoline-3,3′-pyrrolidin]-2-one] it was under 3 µM.

`O=C([C@@H]1CC[C@@H](CO)C1)N1CC[C@]2(C1)C(=O)Nc1cc(Cl)c(Cl)cc12` (single isomer, unassigned; isomer 2) [Compound 100] showed an IC50 of under 3 µM.

`O=C1Nc2cc(Cl)c(Cl)cc2[C@]12CCN(c1c[nH]c(=O)cn1)C2` [Compound 145, (S)-5,6-dichloro-1′-(5-oxo-4,5-dihydropyrazin-2-yl)spiro[indoline-3,3′-pyrrolidin]-2-one] displayed an IC50 of under 1 µM. As to `C[C@@H]1N(C(=O)CO)CCC12C(=O)Nc1cc(Cl)c(Cl)cc12` (single isomer, unassigned; diastereoisomer 1) [Compound 133, 5,6-dichloro-1′-(2-hydroxyacetyl)-2′-methylspiro[indoline-3,3′-pyrrolidin]-2-one diastereoisomer 1], the IC50 is under 3 µM.
